This is an account of results in patent publication US5597845A, “Substituted alkyldiamine derivatives” (Merrell Pharmaceuticals Inc., priority 1994, dated 1997).

Assay [1] has as its target T1, human jejunal NK2 receptor (Homo sapiens, UniProt P21452).
T1 construct: expressed in transfected cells; host or cells: HSKR-1 cells (mouse 3T3 fibroblasts)
T1 sequence (P21452 1-398): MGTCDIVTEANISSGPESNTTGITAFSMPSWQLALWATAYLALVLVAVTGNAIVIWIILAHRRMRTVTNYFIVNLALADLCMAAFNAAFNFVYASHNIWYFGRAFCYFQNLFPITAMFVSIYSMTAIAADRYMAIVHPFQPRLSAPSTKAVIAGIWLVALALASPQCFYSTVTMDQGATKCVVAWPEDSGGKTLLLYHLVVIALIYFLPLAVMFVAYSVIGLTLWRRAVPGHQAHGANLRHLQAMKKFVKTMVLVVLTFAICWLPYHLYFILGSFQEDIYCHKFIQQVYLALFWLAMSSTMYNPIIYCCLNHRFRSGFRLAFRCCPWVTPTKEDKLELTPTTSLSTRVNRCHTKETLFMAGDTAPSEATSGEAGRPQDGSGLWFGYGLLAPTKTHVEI
The assay is described as follows: Antagonism of iodinated tachykinin binding: NK2 receptor affinity in HSKR-1 cells (125 iodohistidyl-1-neurokinin A). The following applies: HSKR-1 cells (mouse 3T3 fibroblasts expressing human jejunal NK2 receptor); 125I-neurokinin A 0.1 nM; 2 hr room temperature; mean of several experiments. How it is done: (§1) The NK1 receptor affinity of proposed tachykinin antagonists was evaluated in guinea pig lungs (Keystone Biologicals, Cleveland, Ohio) and affinity for the NK2 receptor evaluated in HSKR-1 cells (which are mouse 3T3 fibroblasts expressing the human jejunal NK2 receptor). Tissues or cells were homogenized with a Polytron in 15 volumes of 50 mM Tris-HCl buffer (pH 7.4, 4° C.) and centrifuged. The pellet was resuspended in Tris-HCl buffer and was centrifuged; the pellet was washed twice by resuspension. The final pellet was resuspended at a concentration of 40 mg/ml for tissues and 20 mg/ml for cells in incubation buffer and remained at room temperature for at least 15 min prior to use. Receptor binding was initiated by addition of 250 ul membrane preparation in duplicate to 0.1 nM of the following radioligands: ^125 I-Bolton Hunter Lys-3 labeled substance P and ^125 iodohistidyl-1-neurokinin A; in a final volume of 500 ul of buffer containing 50 mM Tris-HCl (pH 7.4 at room temperature), 0.1% bovine serum albumin, 2 mM MnCl2, 40 ug/ml bacitracin, 4 μg/ml leupeptin and chymostatin, 1 μM thiorphan and various doses of the putative tachykinin antagonists. Incubations were performed at room temperature for 90 min (NK1 receptor assays) or 2 hr (NK2 receptor assay); binding was terminated by addition of 50 mM Tris-HCl buffer (pH 7.4, 4° C.) and filtration under vacuum through GF/B filters presoaked with 0.1% polyethyleneimine (NK, receptor assays) or 0.5% bovine serum albumin (NK2 receptor assay). Filter bound radioactivity was quantitated in a gamma counter. Nonspecific binding was defined as binding in the presence of 1 μM substance P or neurokinin A. Specific binding was calculated by subtracting nonspecific binding from total binding. Competition of iodinated SP or NKA binding by test compounds or standards was expressed as a percentage of this maximum competition. IC50 values (concentration required to inhibit 50% of receptor binding) were generated for each of the test compounds by nonlinear regression using an iterative curve fitting program (GraphPAD Inplot, San Diego, Calif.).
(§2) IC50 values for some of the compounds of the present invention are found in Table 1 and represent the mean of several experiments.

The next assay concerns the target T2, NK1 receptor (Cavia porcellus, UniProt P30547).
T2 construct: evaluated in guinea pig lungs; tissue Keystone Biologicals, Cleveland, Ohio; host or cells: guinea pig lung
The assay is described as follows: Antagonism of iodinated tachykinin binding: NK1 receptor affinity in guinea pig lungs (125I-Bolton Hunter Lys-3 labeled substance P). Particulars: 125I-substance P 0.1 nM, 90 min room temperature, mean of several experiments. On the procedure:
as §1, §2

pIC50: −log10 of the molar value.

Broadly, the pIC50 is −log10 of the IC50, conventionally taken in molar units. Read a high pIC50 as a low IC50.

T2 sequence (P30547 whole entry): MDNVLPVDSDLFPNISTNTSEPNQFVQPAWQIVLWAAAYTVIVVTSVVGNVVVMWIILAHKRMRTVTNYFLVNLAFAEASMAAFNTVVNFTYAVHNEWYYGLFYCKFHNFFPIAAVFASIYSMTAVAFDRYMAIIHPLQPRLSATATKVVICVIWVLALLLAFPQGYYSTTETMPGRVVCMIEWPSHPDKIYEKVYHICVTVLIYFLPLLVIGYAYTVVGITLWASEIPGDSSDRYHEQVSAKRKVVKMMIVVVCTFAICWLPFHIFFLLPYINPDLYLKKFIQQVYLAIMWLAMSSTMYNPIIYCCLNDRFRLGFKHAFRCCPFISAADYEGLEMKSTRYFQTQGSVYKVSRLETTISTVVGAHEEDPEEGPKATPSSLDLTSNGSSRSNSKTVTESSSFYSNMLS

In the case of `CC(Cc1c[nH]c2ccccc12)NCCN[C@@H](Cc1ccccc1)C(=O)N(C)Cc1ccccc1` (mixture of isomers) [Compound No. 11, (S)-N-Benzyl-N-methyl-2-[[(R and S)-2-(1H-indol-3-yl)-1-methyl-ethylamino]-ethylamino]-3-phenyl-propionamide], the pIC50 in assay [1] was 6.88; at NK1 receptor, 6.02.

With `COC(=O)[C@H](Cc1c[nH]c2ccccc12)NCCN[C@@H](Cc1ccc2ccccc2c1)C(=O)N(C)Cc1ccc(Cl)c(Cl)c1` [Compound No. 2, (S)-N-(3,4-Dichlorobenzyl)-N-methyl-2-[[(S)-2-(1H-indol-3-yl)-1-carboxymethyl-ethylamino]-ethylamino]-3-(naphth-2-yl)-propionamide], the pIC50 in assay [1] is 6.20; at NK1 receptor, 7.21.

Regarding `COC(=O)[C@@H](Cc1c[nH]c2ccccc12)NCCN[C@@H](Cc1ccccc1)C(=O)N(C)Cc1ccccc1` [Compound No. 3, (S)-N-Benzyl-N-methyl-2-[[(R)-2-(1H-indol-3-yl)-1-carboxymethyl-ethylamino]-ethylamino]-3-phenyl-propionamide], the negative logarithm of the IC50 (pIC50) in assay [1] is 6.67; on NK1 receptor it was 6.03.

In the case of `COC(=O)[C@H](Cc1c[nH]c2ccccc12)NCCN[C@@H](Cc1ccccc1)C(=O)N(C)Cc1ccccc1OC` [Compound No. 4, (S)-N-(2-Methoxybenzyl)-N-methyl-2-[[(S)-2-(1H-indol-3-yl)-1-carboxymethyl-ethylamino]-ethylamino]-3-phenyl-propionamide], the pIC50 in assay [1] is 6.57; at NK1 receptor, 6.84.

For the compound `COC(=O)[C@H](Cc1c[nH]c2ccccc12)NCCN[C@@H](Cc1ccc2ccccc2c1)C(=O)N(C)Cc1ccccc1` [Compound No. 5], the figures for the negative logarithm of the IC50 (pIC50) (in assay [1]; at NK1 receptor) were 6.55 and 7.11, respectively.

For `COC(=O)[C@H](Cc1c[nH]c2ccccc12)NCCN[C@@H](Cc1ccccc1)C(=O)N(C)Cc1ccccc1` [Compound No. 6, (S)-N-Benzyl-N-methyl-2-[[(S)-2-(1H-indol-3-yl)-1-carboxymethyl-ethylamino]-ethylamino]-3-phenyl-propionamide], the pIC50 in assay [1] is 6.64; on NK1 receptor it was 6.53.

As for `CN(Cc1ccccc1)C(=O)[C@H](Cc1ccccc1)NCCN[C@@H](Cc1c[nH]c2ccccc12)C(N)=O` [Compound No. 7, (S)-N-Benzyl-N-methyl-2-[[(S)-2-(1H-indol-3-yl)-1-carboxylic acid amide-ethylamino]-ethylamino]-3-phenyl-propionamide], the negative logarithm of the IC50 (pIC50) in assay [1] is 6.68; on NK1 receptor, 6.33.

For `COC(=O)[C@H](Cc1c[nH]c2ccccc12)NCCN[C@@H](Cc1ccccc1)C(=O)N(C)Cc1cc(OC)c(OC)c(OC)c1` [Compound No. 8, (S)-N-(3,4,5-Trimethoxybenzyl)-N-methyl-2-[[(S)-2-(1H-indol-3-yl)-1-carboxymethyl-ethylamino]ethylamino]-3-phenyl-propionamide], the negative logarithm of the IC50 (pIC50) is 5.70 in assay [1] and 6.15 on NK1 receptor.

On to `CN(Cc1ccccc1)C(=O)[C@H](Cc1ccccc1)NCCNCCc1c[nH]c2ccccc12` [Compound No. 9], for which the negative-log IC50 (pIC50) in assay [1] is 6.94; at NK1 receptor, 6.11.

As to `COC(=O)[C@H](Cc1c[nH]c2ccccc12)NCCN[C@@H](Cc1ccccc1)CN(C)C(=O)c1cc(OC)c(OC)c(OC)c1` [Compound No. 10, N-Methyl-N-[(S)-2-[[(S)-2-(1H-indol-3-yl)-1-carboxymethyl-ethylamino]-ethylamino]-3-phenyl-propyl]-(3,4,5-trimethoxy)benzamide], the results for the negative-log IC50 (pIC50) (in assay [1]; on NK1 receptor) were 5.59 and 6.20, respectively.

On to `COC(=O)[C@H](Cc1ccccc1)NCCN[C@@H](Cc1ccccc1)C(=O)N(C)Cc1ccccc1` [Compound No. 12, (S)-N-Benzyl-N-methyl-2-[[(S)-2-phenyl-1-carboxymethyl-ethylamino]-ethylamino]-3-phenyl-propionamide], for which the negative logarithm of the IC50 (pIC50) (in assay [1]; at NK1 receptor) was 5.84 throughout.

For the compound `COC(=O)[C@@H](NCCN[C@@H](Cc1ccccc1)C(=O)N(C)Cc1ccccc1)c1ccccc1` [Compound No. 13, (S)-N-Benzyl-N-methyl-2-[[(S)-1-phenyl-1-carboxymethyl-methylamino]-ethylamino]-3-phenyl-propionamide], the pIC50 in assay [1] is 5.33; on NK1 receptor, 5.62.

Consider `COC(=O)[C@H](Cc1c[nH]c2ccccc12)NCCN[C@@H](Cc1ccccc1)CN(C)C(=O)c1ccccc1` [Compound No. 14, N-Methyl-N-[(S)-2-[[(S)-2-(1H-indol-3-yl)-1-carboxymethyl-ethylamino]-ethylamino]-3-phenyl-propyl]-benzamide], for which the pIC50 in assay [1] was 5.91; at NK1 receptor, 5.00.

Regarding `COC(=O)[C@H](Cc1c[nH]c2ccccc12)NCCN(C(=O)OC(C)(C)C)[C@@H](Cc1ccc2ccccc2c1)C(=O)N(C)Cc1ccccc1` [Compound No. 15, (S)-N-Benzyl-N-methyl-2-[[(S)-2-(1H-indol-3-yl)-1-carboxymethyl-ethylamino]-N'-(t-butoxycarbonyl)ethylamino]-3-(naphth-2-yl)-propionamide], the pIC50 in assay [1] is 5.59; at NK1 receptor, under 5.00.

Turning to `CN(Cc1ccccc1)C(=O)[C@H](Cc1ccccc1)NCCN[C@@H](Cc1c[nH]c2ccccc12)C(=O)O` [Compound No. 16, (S)-N-Benzyl-N-methyl-2-[[(S)-2-(1H-indol-3-yl)-1-carboxy-ethylamino]-ethylamino]-3-phenyl-propionamide], the negative logarithm of the IC50 (pIC50) in assay [1] was 5.80; on NK1 receptor, 5.42.
